The values below come from patent US20150291598A1 (NOVARTIS AG, priority 2012, published 2015).

Each structure is given as a SMILES string.

The test system of the assay is P. falciparum (NF54 or 3D7 strain). The assay is described as follows: Assay for P. falciparum proliferation in infected human blood cells (SYBR Green). It is filed as cell-based, Plasmodium falciparum. The settings on record: Plasmodium falciparum, Erythrocyte, 72 h, NF54 or 3D7 infected human erythrocytes, 72 hours; read-out: EC50 (nM), inhibitory efficacy in delaying P. falciparum proliferation in infected human blood cells. An outline of the steps:
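NF54 or 3D7 parasites in O+ human erythrocytes at 2.5% hematocrit and 0.3% parasitemia final, exposed to compounds 72 h at 37 °C under 93% N2/4% CO2/3% O2.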
Take `CN(C(=O)c1cn2c(-c3ccc(F)cc3)cnc2cn1)c1ccc(C#N)cc1` [Compound 153, N-(4-cyanophenyl)-3-(4-fluorophenyl)-N-methylimidazo[1,2-a]pyrazine-6-carboxamide]: the EC50 amounted to 2060 nM. The result for `CN(C(=O)c1cn2c(-c3ccc4cn[nH]c4c3)cnc2cn1)c1ccc(C#N)cc1` [Compound 154, N-(4-cyanophenyl)-3-(1H-indazol-6-yl)-N-methylimidazo[1,2-a]pyrazine-6-carboxamide] reads 2690 nM; that for `CN(C(=O)c1cn2c(-c3ccc(Cl)c(C#N)c3)cnc2cn1)c1ccc(C#N)cc1` [Compound 155, 3-(4-chloro-3-cyanophenyl)-N-(4-cyanophenyl)-N-methylimidazo[1,2-a]pyrazine-6-carboxamide], 2390 nM; that for `CC(C)c1nc(-c2cnc3cnc(C(=O)N(C)c4ccc(C#N)cc4)cn23)cs1` [Compound 156, N-(4-cyanophenyl)-N-methyl-3-[2-(propan-2-yl)-1,3-thiazol-4-yl]imidazo[1,2-a]pyrazine-6-carboxamide], 391 nM. Under `CN(C(=O)c1cn2c(-c3ccc4ncccc4c3)cnc2cn1)c1ccc(C#N)cc1` [Compound 157, N-(4-cyanophenyl)-N-methyl-3-(quinolin-6-yl)imidazo[1,2-a]pyrazine-6-carboxamide] stands 2010 nM; under `CN(C(=O)c1cn2c(-c3ccc(C(=O)NC4CC4)cc3)cnc2cn1)c1ccc(C#N)cc1` [Compound 158, N-(4-cyanophenyl)-3-[4-(cyclopropylcarbamoyl)phenyl]-N-methylimidazo[1,2-a]pyrazine-6-carboxamide], 2050 nM.

For the molecule `CN(C)c1ccc(-c2cnc3cnc(C(=O)N(C)c4ccc(F)c(F)c4)cn23)cc1` [Compound 159, N-(3,4-difluorophenyl)-3-[4-(dimethylamino)phenyl]-N-methylimidazo[1,2-a]pyrazine-6-carboxamide], the EC50 amounted to 368 nM. The result for `Cc1cc(C)n(-c2ccc(-c3cnc4cnc(C(=O)N(C)c5ccc(C#N)cc5)cn34)cc2)n1` [Compound 160, N-(4-cyanophenyl)-3-[4-(3,5-dimethyl-1H-pyrazol-1-yl)phenyl]-N-methylimidazo[1,2-a]pyrazine-6-carboxamide] reads 1750 nM; that for `CN(C(=O)c1cn2c(-c3ccc(C(N)=O)cc3)cnc2cn1)c1ccc(Cl)nc1` [Compound 161, 3-(4-carbamoylphenyl)-N-(6-chloropyridin-3-yl)-N-methylimidazo[1,2-a]pyrazine-6-carboxamide], 1470 nM.

With `CC(C)Oc1ccc(-c2cnc3cnc(C(=O)N(C)c4ccc(C#N)cc4)cn23)cc1` [Compound 162, N-(4-cyanophenyl)-N-methyl-3-[4-(propan-2-yloxy)phenyl]imidazo[1,2-a]pyrazine-6-carboxamide], the EC50 worked out at 318 nM. With `Cc1nnc(-c2ccc(-c3cnc4cnc(C(=O)N(C)c5ccc(C#N)cc5)cn34)cc2)o1` [Compound 163, N-(4-cyanophenyl)-N-methyl-3-[4-(5-methyl-1,3,4-oxadiazol-2-yl)phenyl]imidazo[1,2-a]pyrazine-6-carboxamide], the EC50 turned out to be 2630 nM.

On to `CN(C)c1ccc(-c2cnc3cnc(C(=O)N(C)c4ccc(S(C)(=O)=O)cc4)cn23)cc1` [Compound 164, 3-[4-(dimethylamino)phenyl]-N-(4-methanesulfonylphenyl)-N-methylimidazo[1,2-a]pyrazine-6-carboxamide], for which the EC50 amounted to 961 nM.

For the molecule `CN(C(=O)c1cn2c(-c3ccc(C4NC(=O)NC4=O)cc3)cnc2cn1)c1ccc(C#N)cc1` (stereo not shown) [Compound 165, N-(4-cyanophenyl)-3-[4-(2,5-dioxoimidazolidin-4-yl)phenyl]-N-methylimidazo[1,2-a]pyrazine-6-carboxamide], the EC50 stood at 4610 nM. For the molecule `COC(=O)c1ccc(-c2cnc3cnc(C(=O)N(C)c4ccc(C#N)cc4)cn23)cc1` [Compound 166, methyl 4-{6-[(4-cyanophenyl)(methyl)carbamoyl]imidazo[1,2-a]pyrazin-3-yl}benzoate], the EC50 worked out at 206 nM. The result for `CN(C(=O)c1cn2c(-c3ccc4cnccc4c3)cnc2cn1)c1ccc(C#N)cc1` [Compound 167, N-(4-cyanophenyl)-3-(isoquinolin-6-yl)-N-methylimidazo[1,2-a]pyrazine-6-carboxamide] reads 4870 nM; that for `CN(C(=O)c1cn2c(-c3ccc4c(=O)[nH]ccc4c3)cnc2cn1)c1ccc(C#N)cc1` [Compound 168, N-(4-cyanophenyl)-N-methyl-3-(1-oxo-1,2-dihydroisoquinolin-6-yl)imidazo[1,2-a]pyrazine-6-carboxamide], 558 nM.

For `CN(C(=O)c1cn2c(-c3ccc(C(F)(F)F)c(F)c3)cnc2cn1)c1ccc(C#N)cc1` [Compound 169, N-(4-cyanophenyl)-3-[3-fluoro-4-(trifluoromethyl)phenyl]-N-methylimidazo[1,2-a]pyrazine-6-carbox], the EC50 came out at 497 nM. Under `CCCOc1ccc(-c2cnc3cnc(C(=O)N(C)c4ccc(C#N)cc4)cn23)cn1` [Compound 170, N-(4-cyanophenyl)-N-methyl-3-(6-propoxypyridin-3-yl)imidazo[1,2-a]pyrazine-6-carboxamide] stands 4070 nM; under `CN(C(=O)c1cn2c(-c3ccc(C(F)(F)F)cc3)cnc2cn1)c1ccccc1C(F)(F)F` [Compound 171, N-methyl-N-[2-(trifluoromethyl)phenyl]-3-[4-(trifluoromethyl)phenyl]imidazo[1,2-a]pyrazine-6-carboxamide], 4010 nM; under `CN(C(=O)c1cn2c(-c3ccc(C(N)=O)cc3)cnc2cn1)c1ccc(S(C)(=O)=O)cc1` [Compound 172, 3-(4-carbamoylphenyl)-N-(4-methanesulfonylphenyl)-N-methylimidazo[1,2-a]pyrazine-6-carboxamide], 1130 nM. Consider `CN(C(=O)c1cn2c(-c3ccc(C(F)(F)F)cc3)cnc2cn1)c1ccc(OC(F)(F)F)cc1` [Compound 173, N-methyl-N-[4-(trifluoromethoxy)phenyl]-3-[4-(trifluoromethyl)phenyl]imidazo[1,2-a]pyrazine-6-carboxamide], for which the EC50 is 4250 nM.

In the case of `CN(C(=O)c1cn2c(-c3ccc(C(F)(F)F)cc3)cnc2cn1)c1nccn1C` [Compound 174, N-methyl-N-(1-methyl-1H-imidazol-2-yl)-3-[4-(trifluoromethyl)phenyl]imidazo[1,2-a]pyrazine-6-carboxamide], the EC50 stood at 4750 nM. Under `CN(C(=O)c1cn2c(-c3cccc(C(F)(F)F)c3)cnc2cn1)c1ccc(C#N)cc1` [Compound 175, N-(4-cyanophenyl)-N-methyl-3-[3-(trifluoromethyl)phenyl]imidazo[1,2-a]pyrazine-6-carboxamide] stands 3280 nM; under `O=C(c1cn2c(-c3ccc(C(F)(F)F)cc3)cnc2cn1)N1CCc2cc(F)ccc21` [Compound 176, 5-fluoro-1-({3-[4-(trifluoromethyl)phenyl]imidazo[1,2-a]pyrazin-6-yl}carbonyl)-2,3-dihydro-1H-indole], above 10000 nM. In the case of `CN(C(=O)c1cn2c(-c3ccc(Oc4ccccc4)cc3)cnc2cn1)c1ccc(C#N)cc1` [Compound 177, N-(4-cyanophenyl)-N-methyl-3-(4-phenoxyphenyl)imidazo[1,2-a]pyrazine-6-carboxamide], the EC50 came to 6750 nM. The result for `CN(C(=O)c1cn2c(-c3cnn(Cc4ccccc4)c3)cnc2cn1)c1ccc(C#N)cc1` [Compound 178, 3-(1-benzyl-1H-pyrazol-4-yl)-N-(4-cyanophenyl)-N-methylimidazo[1,2-a]pyrazine-6-carboxamide] reads 6510 nM; that for `CN(C(=O)c1cn2c(-c3ccc(Cl)cc3C(F)(F)F)cnc2cn1)c1ccc(C#N)cc1` [Compound 179, 3-[4-chloro-2-(trifluoromethyl)phenyl]-N-(4-cyanophenyl)-N-methylimidazo[1,2-a]pyrazine-6-carboxamide], 4400 nM; that for `CN(C(=O)c1cn2c(-c3ccc(-c4nnn[nH]4)cc3)cnc2cn1)c1ccc(C#N)cc1` [Compound 180, N-(4-cyanophenyl)-N-methyl-3-[4-(1H-1,2,3,4-tetrazol-5-yl)phenyl]imidazo[1,2-a]pyrazine-6-carboxamide], 4340 nM. The result for `CN(C(=O)c1cn2c(-c3ccc(N4CCCC4)cc3)cnc2cn1)c1ccc(C#N)cc1` [Compound 181, N-(4-cyanophenyl)-N-methyl-3-[4-(pyrrolidin-1-yl)phenyl]imidazo[1,2-a]pyrazine-6-carboxamide] reads 723 nM; that for `CN(C(=O)c1cn2c(-c3ccc(-c4ccn[nH]4)cc3)cnc2cn1)c1ccc(C#N)cn1` [Compound 182, N-(5-cyanopyridin-2-yl)-N-methyl-3-[4-(1H-pyrazol-5-yl)phenyl]imidazo[1,2-a]pyrazine-6-carboxamide], 2260 nM; that for `CN(C(=O)c1cn2c(-c3ccc(C(F)(F)F)cc3)cnc2cn1)c1cccc(Br)c1` [Compound 183, N-(3-bromophenyl)-N-methyl-3-[4-(trifluoromethyl)phenyl]imidazo[1,2-a]pyrazine-6-carboxamide], 2400 nM.

With `CN(C(=O)c1cn2c(-c3cncc(S(N)(=O)=O)c3)cnc2cn1)c1ccc(C#N)cc1` [Compound 184, N-(4-cyanophenyl)-N-methyl-3-(5-sulfamoylpyridin-3-yl)imidazo[1,2-a]pyrazine-6-carboxamide], the EC50 is above 10000 nM. `CON(C)C(=O)c1ccc(-c2cnc3cnc(C(=O)N(C)c4ccc(C#N)cc4)cn23)cc1` [Compound 185, N-(4-cyanophenyl)-3-{4-[methoxy(methyl)carbamoyl]phenyl}-N-methylimidazo[1,2-a]pyrazine-6-carboxamide]: the EC50 is 7170 nM.

As for `CN(C(=O)c1cn2c(-c3ccc(CN)cc3)cnc2cn1)c1ccc(C#N)cc1` [Compound 186, 3-[4-(aminomethyl)phenyl]-N-(4-cyanophenyl)-N-methylimidazo[1,2-a]pyrazine-6-carboxamide], the EC50 turned out to be 9170 nM.
